In PubChem BioAssay (NCI):
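Five compound concentrations were applied to cells in 96-well plates for 48 hours; endpoints were derived by simple linear interpolation of the resulting dose-response curve. The concentration for full growth arrest is given as TGI.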

Key:
Test in all cases: NCI-60 cell line screen, 48 h
[1] = system: A549 NSCLC
[2] = system: UACC-62 melanoma
[3] = system: SN12C renal
[4] = system: EKVX NSCLC
[5] = system: HCT-15 colon
[6] = system: NCI-H226 lung
[7] = system: OVCAR-8 ovarian
[8] = system: TK-10 renal
[9] = system: SF-268 CNS
[10] = system: RPMI-8226 leukemia

SMILES | TGI [1] [µM] | TGI [2] [µM] | TGI [3] [µM] | TGI [4] [µM] | TGI [5] [µM] | TGI [6] [µM] | TGI [7] [µM] | TGI [8] [µM] | TGI [9] [µM] | TGI [10] [µM]
CCCCCCCCC/C=C1/CC(CO)(COC(=O)C2CCCCC2)OC1=O (configuration not stated) | > 100 | > 100 | > 100 | > 100 | > 100 | > 100 | > 100 | > 100 | > 100 | 
CCN1CCC(O)(/C=C/c2ccc(Cl)c(Cl)c2)C(C(=O)/C=C/c2ccc(Cl)c(Cl)c2)C1 (configuration not stated) | 1.72 | 2.4 | 2.06 | 1.89 | 4.52 | 3.81 | 1.87 | 2.81 | 2.54 | > 100
COc1ccccc1-c1nc[nH]c1-c1ccccc1OC | > 100 |  | > 100 | > 100 | > 100 |  |  | > 100 | 65.3 | > 100
CN(C)c1ccc(/C=C(\C#N)C(=O)c2ccccc2)cc1Br | > 100 | > 100 | > 100 | > 100 |  | > 100 | > 100 | > 100 | > 100 | 63.4
CN(C)CC(O)CNC(=O)Nc1ccccc1 (configuration not stated) | > 100 | > 100 | > 100 | > 100 | > 100 | > 100 | > 100 | > 100 | > 100 | > 100
CN(CCCNC(=O)c1[nH]nc2c1ccc1ccccc12)CCCNC(=O)c1[nH]nc2c1ccc1ccccc12 | 37.6 | 21.6 | 30.1 | 38.8 | 31.2 | 30.7 | 30.9 | 31.8 | 28.1 | 
O=S1(=O)OCCOS(=O)(=O)C1C1c2ccccc2-c2ccccc21 | > 100 | > 100 | > 100 | > 100 | > 100 | > 100 | > 100 | > 100 | > 100 | > 100
c1ccc(C(OCCN2CC3CCC(C2)N3)c2ccccc2)cc1 | > 100 | 64.3 | > 100 | > 100 | > 100 | > 100 | > 100 | > 100 | > 100 | > 100
CC(NC(=O)C(NC(=O)C(NC(=O)C(F)(F)F)C(C)C)C(C)C)C(=O)Oc1c(Cl)c(Cl)c(Cl)c(Cl)c1Cl (configuration not stated) | > 100 | > 100 | > 100 | > 100 | > 100 | > 100 | > 100 | > 100 | > 100 | > 100
COC(=O)C1=C(C(=O)OC)SC2(S1)C(C(=O)OC)=C(C(=O)OC)Sc1c2ssc1=O | 31 | 1.37 | 2.96 | 6.16 | 1.57 | 2.97 | 2.69 | 3.04 | 10.3 | 5.68
CC(C)c1cccc(C(C)C)c1NC(=O)/C(Cc1nc2ccc(Cl)cc2[nH]c1=O)=N\NC(=O)C[N+](C)(C)C | > 100 | > 100 | > 100 | > 100 |  |  | > 100 | > 100 | > 100 | > 100
Clc1cccc(C=NC23CC4CC(CC(C4)C2)C3)c1Cl | > 10 | > 10 | > 10 | > 10 | > 10 | > 10 | > 10 | > 10 | > 10 | > 10
CC(=O)Nc1ccc(S(=O)(=O)Nc2cnc3ccccc3n2)cc1 | > 100 | > 100 | > 100 | > 100 | > 100 | > 100 | > 100 | > 100 | > 100 | > 100
O=C1C2Cc3ccccc3CN2C(=O)N1CN1CCCCC1 (configuration not stated) | > 100 | > 100 | > 100 |  | > 100 | > 100 | > 100 | > 100 | > 100 | > 100
Nc1ccc(Oc2ccc(C34CC5CC(C3)CC(c3ccc(Oc6ccc(N)c(O)c6)cc3)(C5)C4)cc2)cc1O | 3.24 | 6.59 | > 21.2 | 3.63 | 4.37 | 9.93 | 4.86 | > 20.3 | 2.9 | > 100
CN1CN(c2ccccc2)C2(CCN(C(=O)OC(C)(C)C)CC2)C1=O | > 100 | > 100 | > 100 | > 100 | > 100 | > 100 | > 100 | > 100 | > 100 | > 100
Cc1ccc(S(=O)(=O)N(CC(O)COc2ccccc2)c2ccccc2Cl)cc1 (configuration not stated) | 27.9 | 21.5 | 29.4 | 31.8 | 29.3 | 32.3 | 33.5 | 29.3 | 35.7 | 30.4
Nc1nc(Cl)cc(OCC2(CO)CCCCC2)n1 | > 100 |  | > 100 | > 100 | > 100 | > 100 | > 100 | > 100 | > 100 | > 100
COC(=O)C12CCC(CC1=O)C2(C)C (configuration not stated) | > 100 | > 100 | > 100 | > 100 | > 100 | > 100 | > 100 | > 100 |  | > 100
CCOC(=O)C1=C(C)NC(c2ccccc2)=C(C(=O)OCc2ccccc2)C1C#Cc1ccccc1 (configuration not stated) |  | > 100 | > 100 | > 100 | > 100 | > 100 | > 100 | > 100 | > 100 | > 100
O=C(NC12CC3CC(CC(C3)C1)C2)n1cnc2c(Cl)ncnc21 | > 100 | > 100 | > 100 | 71.8 | > 100 |  | 66.4 | > 100 | 57.4 | > 100
